# Reference: patent US20090281054A1, “COMPOSITIONS AND METHODS COMPRISING CAPURAMYCIN ANALOGUES” (priority 2008, published 2009)
# Like-named read-outs stand apart in the source and are kept apart here.
# Assays:
# in vitro = assay type: cell-based; details: mouse
# Description: (§1) The SQ997 amino acid derivatives shown in Table 2 were tested for in vitro activity against MTB, cytotoxicity for uninfected J774 cells to determine IC50, and for intracellular activity in the macrophage assay (Table 15). […] Cell viability remained similar to SQ997, or slightly better as cell morphologic changes were reduced.
# MTB H37Rv = assay: MIC by broth microdilution; assay type: cell-based; details: Mycobacterium tuberculosis
# Description: as §1
# [1] = system: M. smegmatis (MSMG; MC2155); assay: MIC by microdilution method in 7H9 broth; assay type: cell-based; details: MSMG MC^2155, 72 hr
# [2] = system: M. abscessus (MAB; ATCC 700869); assay: MIC by microdilution method in 7H9 broth; assay type: cell-based; details: MAB 700869
# [3] = system: M. kansaii (MKN; ATCC12478 & 35775); assay: MIC by microdilution method in 7H9 broth; assay type: cell-based, M. kansasii
# M. avium complex (MAC) = assay: MIC by microdilution method in 7H9 broth; assay type: cell-based; details: for MIC90: value in square brackets
# MAC = assay: Synergy by checkerboard titration (microdilution); assay type: cell-based, M. avium complex; details: for MIC Combination: combination SQ641 + EMB; for MIC: Mycobacterium avium, drug alone
# M. smegmatis = assay: Synergy by checkerboard titration (microdilution); assay type: cell-based; details: M. smegmatis; for MIC: Mycolicibacterium smegmatis, drug alone
# [4] = system: MTB-pSMT1 luciferase reporter strain; assay: Activity against slowly replicating (hypoxic) MTB; assay type: cell-based; details: Mycobacterium tuberculosis
# M. abscessus = assay: Synergy by checkerboard titration (microdilution); assay type: cell-based
# [5] = system: intracellular MTB (MTBp-SMT1) in J774A.1 macrophages; assay: Intracellular activity of SQ641-TPGS micelles; assay type: cell-based, Mycobacterium tuberculosis
# MTB in J774 cells = assay: Intracellular activity of amino acid conjugates; assay type: cell-based, Mycobacterium tuberculosis; details: day 0 RLU 775, Control day 7 31700
# Description: The amino acid conjugates were tested at concentrations of 4 mg/mL and 8 mg/mL compared with a control and isoniazid (INH).
# The intracellular activity against MTB by capuramycin amino acid derivatives was tested. Cells J774 were infected with MTB and treated for 7 days with the amino acid derivative. The mean Relative Light Unites (RLU), an estimation of bacterial viability, was measured as described in Snewin et al., Infect. Immun., 1999, 67(9), 4586-4593).
# [6] = Mycolicibacterium smegmatis, MC2155|MC^2155, read-out: MIC
# [7] = Mycobacteroides abscessus, ATCC700869, read-out: MIC
# [8] = Mycobacterium kansasii, ATCC 12478 / ATCC 35775, MKN ATCC35775, read-out: MIC
# [9] = Mycobacterium kansasii, MKN ATCC12478, read-out: MIC
# [10] = Mycobacterium avium, 336 h, MAC isolates, 2 wk, read-out: MIC (range)
# [11] = Mycobacterium avium, MAC isolates, read-out: MIC90
compound,measurement,setting,value
CO[C@H]1[C@@H](OC(=O)CCCCCCCN)[C@H](N2C=CC(=O)NC2)O[C@@H]1[C@@H](OC1OC(C(=O)N[C@H]2CCC[C@@H](C)NC2=O)=C[C@H](O)[C@@H]1O)C(N)=O (stereo partly drawn) [997-aminooctanoic acid],IC50,in vitro,> 32 µg/mL
same,MIC,MTB H37Rv,8 µg/mL
CO[C@H]1[C@@H](OC(=O)CCCCCCCCCCN)[C@H](N2C=CC(=O)NC2)O[C@@H]1[C@@H](OC1OC(C(=O)N[C@H]2CCC[C@@H](C)NC2=O)=C[C@H](O)[C@@H]1O)C(N)=O (stereo partly drawn) [997-aminoundecanoic acid],IC50,in vitro,32 µg/mL
same,MIC,MTB H37Rv,2 µg/mL
"CC[C@@H](CO)NCCN[C@@H](CC)CO [EMB, ethambutol, reference compound]",MIC,[1]; [6],0.5 µg/mL
same,MIC,[2]; [7],> 32 µg/mL
same,MIC,[3]; [8],1 µg/mL
same,MIC,[3]; [9],2 µg/mL
same,MIC,M. avium complex (MAC); [10],0.5 to 32 µg/mL
same,MIC,"M. avium complex (MAC); Mycobacterium avium, MAC strain 100, read-out: MIC",4 µg/mL
same,MIC,"M. avium complex (MAC); Mycobacterium avium, MAC strain 101, read-out: MIC",1 µg/mL
same,MIC,"M. avium complex (MAC); Mycobacterium avium, MAC strain 104, read-out: MIC",2 µg/mL
same,MIC,"M. avium complex (MAC); Mycobacterium avium, MAC strain 109, read-out: MIC",0.5 µg/mL
same,MIC,"M. avium complex (MAC); Mycobacterium avium, MAC strain A5, read-out: MIC",1 µg/mL
same,MIC,"M. avium complex (MAC); Mycobacterium avium, MAC strain JSH1, read-out: MIC",16 µg/mL
same,MIC,"M. avium complex (MAC); Mycobacterium avium, MAC strain NIH C1-1, read-out: MIC",4 µg/mL
same,MIC,"M. avium complex (MAC); Mycobacterium avium, MAC strain NIH C1-2, read-out: MIC",2 µg/mL
same,MIC,"M. avium complex (MAC); Mycobacterium avium, MAC strain NIH C1-3, read-out: MIC",32 µg/mL
same,MIC,"M. avium complex (MAC); Mycobacterium avium, MAC strain NIH C1-4, read-out: MIC",2 µg/mL
same,MIC90,M. avium complex (MAC); [11],16 µg/mL
same,MIC Combination,MAC; MAC A5,0.062 µg/mL
same,MIC Combination,MAC; MAC JSH1,8.0 µg/mL
same,MIC Combination,MAC; MAC NIH C1-1,2.0 µg/mL
same,MIC,MAC; MAC A5,1 µg/mL
same,MIC,MAC; MAC JSH1,32 µg/mL
same,MIC,MAC; MAC NIH C1-1,8 µg/mL
same,MIC Combination,M. smegmatis; combination SQ641 + EMB,0.12 µg/mL
same,MIC,M. smegmatis,0.5 µg/mL
same,MIC,[4],2 µg/mL
same,MIC,"[4]; Hypoxic, […]",32 µg/mL
"CO[C@H]1/C=C/O[C@@]2(C)Oc3c(C)c(O)c4c(c3C2=O)C2=NC3(CCN(CC(C)C)CC3)NC2=C(NC(=O)/C(C)=C\C=C\[C@H](C)[C@H](O)[C@@H](C)[C@@H](O)[C@@H](C)[C@H](OC(C)=O)[C@@H]1C)C4=O [RFB, reference compound]",MIC,[1],0.25 µg/mL
same,MIC,[2],2 µg/mL
same,MIC,[3]; MKN ATCC12478,≦0.0039 μg/ml
same,MIC,[3]; MKN ATCC35775,≦0.031 μg/ml
same,MIC range,"M. avium complex (MAC); MAC isolates, 2 wk",0.0078 to 0.125 µg/mL
same,MIC90,M. avium complex (MAC); MAC isolates,0.062 µg/mL
same,MIC Combination,M. abscessus; combination SQ641 + RFB,0.25 µg/mL
same,MIC Alone,M. abscessus; drug alone,2.0 µg/mL
"CO[C@H]1/C=C/O[C@@]2(C)Oc3c(C)c(O)c4c(O)c(c(/C=N/N5CCN(C)CC5)c(O)c4c3C2=O)NC(=O)/C(C)=C\C=C\[C@H](C)[C@H](O)[C@@H](C)[C@@H](O)[C@@H](C)[C@H](OC(C)=O)[C@@H]1C [RIF, rifampicin, reference compound]",MIC,[1]; [6],8 µg/mL
same,MIC,[2]; [7],> 32 µg/mL
same,MIC,"[3]; Mycobacterium kansasii, ATCC12478",0.125 µg/mL
same,MIC,"[3]; Mycobacterium kansasii, ATCC 12478 / ATCC 35775",0.125 µg/mL
same,MIC,M. avium complex (MAC); [10],0.062 to 4 µg/mL
same,MIC90,M. avium complex (MAC); [11],1 µg/mL
same,MIC Combination,M. smegmatis; combination SQ641 + RIF,2.0 µg/mL
same,MIC,M. smegmatis,8 µg/mL
same,Mean RLU at Day 7,[5],22 RLU
"[H]/N=C(/N)N[C@H]1[C@H](O)[C@@H](O)[C@H](O[C@@H]2O[C@@H](C)[C@](O)(C=O)[C@H]2O[C@@H]2O[C@@H](CO)[C@H](O)[C@@H](O)[C@@H]2NC)[C@@H](N/C(N)=N\[H])[C@@H]1O [SM, streptomycin, reference compound]",MIC,[1]; [6],0.5 µg/mL
same,MIC,[2]; [7],8 µg/mL
same,MIC,[3]; [8],2 µg/mL
same,MIC,[3]; [9],> 32 µg/mL
same,MIC,"M. abscessus; Mycobacteroides abscessus, drug alone",8 µg/mL
same,MIC Combination,M. abscessus; combination SQ641 + SM,2.0 µg/mL
same,MIC Combination,M. smegmatis; combination SQ641 + SM,0.25 µg/mL
same,MIC,M. smegmatis,0.5 µg/mL
same,MIC,[4],0.25 µg/mL
same,MIC,"[4]; Hypoxic, […]",1 µg/mL
CCCCCCCCCC(=O)O[C@@H]1[C@H](OC)[C@@H]([C@@H](OC2OC(C(=O)N[C@H]3CCC[C@@H](C)NC3=O)=C[C@H](OC(=O)CCOCCOCCOCCOCCN)[C@@H]2OC(=O)CCOCCOCCOCCOCCN)C(N)=O)O[C@H]1n1ccc(=O)[nH]c1=O (stereo partly drawn) [SQ641-2topdec],Mean RLU on day 7,MTB in J774 cells; 4 μg/ml,4354 RLU
same,Mean RLU on day 7,MTB in J774 cells; 8 μg/ml,2903 RLU
CCCCCCCCCC(=O)O[C@@H]1[C@H](OC)[C@@H]([C@@H](OC2OC(C(=O)N[C@H]3CCC[C@@H](C)NC3=O)=C[C@H](OC(=O)CCCCCCCCCCN)[C@@H]2O)C(N)=O)O[C@H]1n1ccc(=O)[nH]c1=O (stereo partly drawn) [SQ641-aua],Mean RLU on day 7,MTB in J774 cells; 4 μg/ml,3163 RLU
same,Mean RLU on day 7,MTB in J774 cells; 8 μg/ml,372 RLU
CCCCCCCCCC(=O)O[C@@H]1[C@H](OC)[C@@H]([C@@H](OC2OC(C(=O)N[C@H]3CCC[C@@H](C)NC3=O)=C[C@H](OC(=O)CCOCCOCCOCCOCCN)[C@@H]2O)C(N)=O)O[C@H]1n1ccc(=O)[nH]c1=O (stereo partly drawn) [SQ641-topdec],Mean RLU on day 7,MTB in J774 cells; 4 μg/ml,3368 RLU
same,Mean RLU on day 7,MTB in J774 cells; 8 μg/ml,2143 RLU
